Assay results as given in PubChem BioAssay AID212 (DTP/NCI, 2004).
Where “and” joins values, the source holds several entries; their conditions need not be identical. Equal entries are not always repeated. Inconclusive results are not listed.

Test system: BDF1 mice, colon carcinoma 38 sc, T/C %
Assay: NCI In Vivo Anticancer Drug Screen. Data for tumor model Colon Carcinoma 38 (subcutaneous) in B6D2F1 (BDF1) mice
Settings: endpoint: median tumor weight (est.), higher = larger tumour
Method in brief: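 T/C readout: treated group (T) measurement over vehicle control group (C) measurement. Endpoint is survival or tumor size in mice bearing a transplanted tumor.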

[1] = dose: 12.5 mg/kg/injection, schedule: Q07DX002 (ip), vehicle: Klucel (hydroxypropylcellulose) (HPC)
[2] = dose: 25.0 mg/kg/injection, schedule: Q07DX002 (ip), vehicle: Klucel (hydroxypropylcellulose) (HPC)
[3] = dose: 50.0 mg/kg/injection, schedule: Q07DX002 (ip), vehicle: Klucel (hydroxypropylcellulose) (HPC)
[4] = dose: 100.0 mg/kg/injection, schedule: Q07DX002 (ip), vehicle: Klucel (hydroxypropylcellulose) (HPC)
[5] = dose: 200.0 mg/kg/injection, schedule: Q07DX002 (ip), vehicle: Klucel (hydroxypropylcellulose) (HPC)
[6] = dose: 100.0 mg/kg/injection, schedule: Q07DX002 (ip), vehicle: saline with Tween-80
[7] = dose: 25.0 mg/kg/injection, schedule: Q07DX002 (ip), vehicle: saline with Tween-80
[8] = dose: 50.0 mg/kg/injection, schedule: Q07DX002 (ip), vehicle: saline with Tween-80
[9] = dose: 200.0 mg/kg/injection, schedule: Q07DX002 (ip), vehicle: saline with Tween-80
[10] = dose: 12.5 mg/kg/injection, schedule: Q07DX002 (ip), vehicle: saline
[11] = dose: 25.0 mg/kg/injection, schedule: Q07DX002 (ip), vehicle: saline
[12] = dose: 50.0 mg/kg/injection, schedule: Q07DX002 (ip), vehicle: saline
[13] = dose: 100.0 mg/kg/injection, schedule: Q07DX002 (ip), vehicle: saline
[14] = dose: 400.0 mg/kg/injection, schedule: Q07DX002 (ip), vehicle: saline with Tween-80
[15] = dose: 800.0 mg/kg/injection, schedule: Q07DX002 (ip), vehicle: saline with Tween-80
[16] = dose: 12.5 mg/kg/injection, schedule: Q07DX002 (ip), vehicle: saline with Tween-80
[17] = dose: 200.0 mg/kg/injection, schedule: Q07DX002 (ip), vehicle: saline
[18] = dose: 400.0 mg/kg/injection, schedule: Q07DX002 (ip), vehicle: saline

## O=C[C@@H](CO)O[C@H](C=O)n1cnc2c(=O)[nH]cnc21
dose: 18.7 mg/kg/injection, schedule: Q07DX002 (ip), vehicle: saline
  T/C: 168 % of control
dose: 37.5 mg/kg/injection, schedule: Q07DX002 (ip), vehicle: saline
  T/C: 105 % of control
dose: 75.0 mg/kg/injection, schedule: Q07DX002 (ip), vehicle: saline
  T/C: 121 % of control
dose: 150.0 mg/kg/injection, schedule: Q07DX002 (ip), vehicle: saline
  T/C: 100 % of control
dose: 300.0 mg/kg/injection, schedule: Q07DX002 (ip), vehicle: saline
  T/C: 120 % of control
dose: 600.0 mg/kg/injection, schedule: Q07DX002 (ip), vehicle: saline
  T/C: 86 % of control

## CC(=O)OCC(=O)[C@@]12OC(C)(C)O[C@@H]1C[C@H]1[C@@H]3CC(C=O)=C4C=C(OCCCl)CC[C@]4(C)[C@@]3(F)[C@@H](O)C[C@@]12C
[1]
  T/C: 86 % of control
dose: 12.5 mg/kg/injection, schedule: Q07DX003 (ip), vehicle: Klucel (hydroxypropylcellulose) (HPC)
  T/C: 62 % of control and 76 % of control
[2]
  T/C: 58 % of control
dose: 25.0 mg/kg/injection, schedule: Q07DX003 (ip), vehicle: Klucel (hydroxypropylcellulose) (HPC)
  T/C: 33 % of control and 57 % of control
[3]
  T/C: 86 % of control
[4]
  T/C: 94 % of control
dose: 100.0 mg/kg/injection, schedule: Q07DX003 (ip), vehicle: Klucel (hydroxypropylcellulose) (HPC)
  T/C: 57 % of control
[5]
  T/C: 54 % of control
dose: 200.0 mg/kg/injection, schedule: Q07DX003 (ip), vehicle: Klucel (hydroxypropylcellulose) (HPC)
  T/C: 48 % of control

## COc1ccc(Cl)[n+]([O-])n1
dose: 6.25 mg/kg/injection, schedule: Q07DX002 (ip), vehicle: Klucel (hydroxypropylcellulose) (HPC)
  T/C: 83 % of control
[1]
  T/C: 87 % of control
[2]
  T/C: 89 % of control
[3]
  T/C: 81 % of control
[4]
  T/C: 90 % of control

## O=C1NCC(Br)C(=O)N1 (stereo unspecified)
dose: 12.5 mg/kg/injection, schedule: Q07DX002 (ip), vehicle: saline + Tween-80 + alcohol
  T/C: 97 % of control
dose: 25.0 mg/kg/injection, schedule: Q07DX002 (ip), vehicle: saline + Tween-80 + alcohol
  T/C: 83 % of control
dose: 50.0 mg/kg/injection, schedule: Q07DX002 (ip), vehicle: saline + Tween-80 + alcohol
  T/C: 99 % of control
dose: 100.0 mg/kg/injection, schedule: Q07DX002 (ip), vehicle: saline + Tween-80 + alcohol
  T/C: 76 % of control
[6]
  T/C: 157 % of control
dose: 200.0 mg/kg/injection, schedule: Q07DX002 (ip), vehicle: saline + Tween-80 + alcohol
  T/C: 84 % of control
dose: 400.0 mg/kg/injection, schedule: Q07DX002 (ip), vehicle: saline + Tween-80 + alcohol
  T/C: 63 % of control

## COc1cc(C(=O)N/N=C/c2cccc([N+](=O)[O-])c2)cc(OC)c1OC
[7]
  T/C: 93 % of control
[8]
  T/C: 124 % of control
[6]
  T/C: 107 % of control
[9]
  T/C: 101 % of control

## CC(C)=CCC/C(C)=C/COc1ccc(/C=C2/C(=O)N(O)[C@@H](C)C(=O)N2O)cc1
dose: 6.25 mg/kg/injection, schedule: Q07DX002 (ip), vehicle: saline
  T/C: 262 % of control
[10]
  T/C: 202 % of control
[11]
  T/C: 178 % of control
[12]
  T/C: 154 % of control
[13]
  T/C: 154 % of control

## Nc1n[n+](-c2ccccc2)no1
dose: 3.12 mg/kg/injection, schedule: Q07DX002 (ip), vehicle: water
  T/C: 99 % of control and 108 % of control
dose: 6.25 mg/kg/injection, schedule: Q07DX002 (ip), vehicle: water
  T/C: 85 % of control and 86 % of control and 98 % of control
dose: 50.0 mg/kg/injection, schedule: Q07DX002 (ip), vehicle: water
  T/C: 70 % of control and 74 % of control and 94 % of control

## O=C(O)C1Cc2nc[nH]c2CN1CO (stereo unspecified)
[7]
  T/C: 93 % of control
[8]
  T/C: 117 % of control and 98 % of control
[6]
  T/C: 113 % of control and 99 % of control
[9]
  T/C: 86 % of control
[14]
  T/C: 93 % of control
[15]
  T/C: 89 % of control

## CCSC(=O)N1c2ccc(OC)cc2C=CC1C#N (stereo unspecified)
[16]
  T/C: 70 % of control
[7]
  T/C: 81 % of control
[6]
  T/C: 107 % of control
dose: 175.0 mg/kg/injection, schedule: Q07DX002 (ip), vehicle: saline with Tween-80
  T/C: 97 % of control
dose: 350.0 mg/kg/injection, schedule: Q07DX002 (ip), vehicle: saline with Tween-80
  T/C: 115 % of control and 100 % of control
[14]
  T/C: 61 % of control
dose: 1400.0 mg/kg/injection, schedule: Q07DX002 (ip), vehicle: saline with Tween-80
  T/C: 75 % of control and 89 % of control

## CC[As](=O)(O)CC
[10]
  T/C: 101 % of control
[11]
  T/C: 110 % of control
[13]
  T/C: 81 % of control
[17]
  T/C: 97 % of control
[18]
  T/C: 110 % of control

## C=CCNc1nc2c(s1)CCc1cc(OC)c(OC)cc1-2
[16]
  T/C: 94 % of control
[9]
  T/C: 109 % of control and 111 % of control
[14]
  T/C: 73 % of control

## O=c1nc(Oc2ccccc2)nc2ncccn12
[16]
  T/C: 82 % of control
[7]
  T/C: 94 % of control
[6]
  T/C: 74 % of control

## CCOC(=O)c1cn(C)c2c1C(O)=C(C(=O)OC)CC(=O)N2
[8]
  T/C: 81 % of control
[6]
  T/C: 119 % of control
[14]
  T/C: 88 % of control
[15]
  T/C: 97 % of control

## CC1CCC(n2cnc3c(Cl)ncnc32)O1 (stereo unspecified)
[1]
  T/C: 76 % of control
[3]
  T/C: 78 % of control and 100 % of control
dose: 62.0 mg/kg/injection, schedule: Q07DX002 (ip), vehicle: Klucel (hydroxypropylcellulose) (HPC)
  T/C: 87 % of control
[4]
  T/C: 86 % of control and 95 % of control
dose: 125.0 mg/kg/injection, schedule: Q07DX002 (ip), vehicle: Klucel (hydroxypropylcellulose) (HPC)
  T/C: 115 % of control
[5]
  T/C: 109 % of control and 95 % of control
dose: 250.0 mg/kg/injection, schedule: Q07DX002 (ip), vehicle: Klucel (hydroxypropylcellulose) (HPC)
  T/C: 56 % of control

## O=C1c2ccccc2C(=O)c2c3c(cc(NCCNCCO)c21)N(CCO)CCN3
dose: 100.0 mg/kg/injection, schedule: Q07DX002 (ip), vehicle: DMSO
  T/C: 96 % of control
dose: 200.0 mg/kg/injection, schedule: Q07DX002 (ip), vehicle: DMSO
  T/C: 105 % of control
dose: 400.0 mg/kg/injection, schedule: Q07DX002 (ip), vehicle: DMSO
  T/C: 117 % of control

## CCOc1cc2c(cc1C(C)c1ccc(OC)cc1)OCO2 (stereo unspecified)
dose: 50.0 mg/kg/injection, schedule: Q07DX002 (ip), vehicle: distilled water + Tween-80 + alcohol
  T/C: 72 % of control
dose: 100.0 mg/kg/injection, schedule: Q07DX002 (ip), vehicle: distilled water + Tween-80 + alcohol
  T/C: 100 % of control
dose: 400.0 mg/kg/injection, schedule: Q07DX002 (ip), vehicle: distilled water + Tween-80 + alcohol
  T/C: 100 % of control

## Nc1nncs1
[10]
  T/C: 71 % of control
[11]
  T/C: 114 % of control
[12]
  T/C: 78 % of control
dose: 50.0 mg/kg/injection, schedule: Q07DX003 (ip), vehicle: saline
  T/C: 74 % of control
[13]
  T/C: 68 % of control
dose: 100.0 mg/kg/injection, schedule: Q07DX003 (ip), vehicle: saline
  T/C: 78 % of control and 79 % of control
[17]
  T/C: 53 % of control
dose: 200.0 mg/kg/injection, schedule: Q07DX003 (ip), vehicle: saline
  T/C: 58 % of control and 74 % of control
[18]
  T/C: 65 % of control
dose: 400.0 mg/kg/injection, schedule: Q07DX003 (ip), vehicle: saline
  T/C: 35 % of control and 38 % of control
dose: 800.0 mg/kg/injection, schedule: Q07DX003 (ip), vehicle: saline
  T/C: 51 % of control and 53 % of control

## CCN(CC)c1ccc2cc(-c3nc4ccccc4n3C)c(=O)oc2c1
[1]
  T/C: 112 % of control
[2]
  T/C: 120 % of control
[3]
  T/C: 85 % of control
[4]
  T/C: 62 % of control

## O=C1CC(C(=O)N2Cc3cc4ccccc4nc3C2)CO1 (stereo unspecified)
dose: 6.25 mg/kg/injection, schedule: Q07DX002 (ip), vehicle: saline with Tween-80
  T/C: 72 % of control
[16]
  T/C: 100 % of control
[7]
  T/C: 101 % of control
[8]
  T/C: 122 % of control
[6]
  T/C: 124 % of control
[9]
  T/C: 100 % of control
